In this data set the test system is CCRIS mutagenicity, Ames/micronucleus/aberration tests. The data set can be described thus: CCRIS mutagenicity studies.
Where [1] appears, read: Test System: AMES SALMONELLA TYPHIMURIUM, Strain/Indicator: TA98, Metabolic Activation: NONE, Method: STANDARD PLATE.
Where [2] appears, read: Test System: AMES SALMONELLA TYPHIMURIUM, Strain/Indicator: TA100, Metabolic Activation: NONE, Method: STANDARD PLATE.
[3] abbreviates: Test System: Mouse lymphoma, Strain/Indicator: L5178Y (tk+/tk-), Metabolic Activation: None, Method: Suspension/plate.
Setting [4] is: Test System: Mouse lymphoma, Strain/Indicator: L5178Y (tk+/tk-), Metabolic Activation: Rat, Liver, S-9, Aroclor 1254, Method: Suspension/plate.

Activity calls are given as the source filed them. How the calls were made is not given here.

On to `Nn1nnc2c([nH]c3ccccc32)c1=O`, for which the mutagenic call (Test System: AMES SALMONELLA TYPHIMURIUM, Strain/Indicator: TA97, Metabolic Activation: NONE, Method: PREINCUBATION) was “active; positive”; the mutagenic call (Test System: AMES SALMONELLA TYPHIMURIUM, Strain/Indicator: TA97, Metabolic Activation: S-9 (10%), Method: PREINCUBATION) is “active; positive”; the mutagenic call (Test System: AMES SALMONELLA TYPHIMURIUM, Strain/Indicator: TA98, Metabolic Activation: NONE, Method: PREINCUBATION) is “active; positive”; the mutagenic call (Test System: AMES SALMONELLA TYPHIMURIUM, Strain/Indicator: TA98, Metabolic Activation: S-9 (10%), Method: PREINCUBATION) is “active; positive”; the mutagenic call (Test System: AMES SALMONELLA TYPHIMURIUM, Strain/Indicator: TA100, Metabolic Activation: NONE, Method: PREINCUBATION) is “active; positive”; the mutagenic call (Test System: AMES SALMONELLA TYPHIMURIUM, Strain/Indicator: TA100, Metabolic Activation: S-9 (10%), Method: PREINCUBATION) was “active; positive”. The mutagenic call by setting is: (Test System: AMES SALMONELLA TYPHIMURIUM, Strain/Indicator: TA102, Metabolic Activation: NONE, Method: PREINCUBATION) “active; positive”; (Test System: AMES SALMONELLA TYPHIMURIUM, Strain/Indicator: TA102, Metabolic Activation: S-9 (10%), Method: PREINCUBATION) “active; positive”.
As for `C[As](O)O`, the mutagenic call runs as follows: (End Point: In vitro micronucleus, Test System: Human peripheral lymphocytes, Metabolic Activation: None) “active; positive in all subjects only at highest dose”; (Test System: Mouse lymphoma, Strain/Indicator: L5178Y (TK+/TK-), Metabolic Activation: None, Method: Microwell) “active; positive”.
As for `O=[N+]([O-])c1ccc2c3c(cccc13)-c1cc(O)ccc1-2`, the mutagenic call is “inactive; negative” (Test System: AMES SALMONELLA TYPHIMURIUM, Strain/Indicator: TA98(1,8-DNP6), Metabolic Activation: NONE, Method: STANDARD PLATE); “active; positive” (Test System: AMES SALMONELLA TYPHIMURIUM, Strain/Indicator: TA98(NR), Metabolic Activation: NONE, Method: STANDARD PLATE); “active; positive” under setting [1]; “active; positive” (Test System: AMES SALMONELLA TYPHIMURIUM, Strain/Indicator: TA98, Metabolic Activation: RAT, LIVER, S-9, AROCLOR 1254, Method: STANDARD PLATE); “inactive; negative” (Test System: AMES SALMONELLA TYPHIMURIUM, Strain/Indicator: TA100(NR), Metabolic Activation: NONE, Method: STANDARD PLATE); “inactive; negative” (Test System: AMES SALMONELLA TYPHIMURIUM, Strain/Indicator: TA100(TN5-1,8-DNP1012), Metabolic Activation: NONE, Method: STANDARD PLATE). Further, the mutagenic call under setting [2] is “active; positive”.
For `NNC(N)=O`, the mutagenic call reads like this: (End Point: IN VIVO MICRONUCLEUS, Test System: POLYCHROMATIC ERYTHROCYTES, Species: MOUSE, Strain/Sex: BALB/C/MALE, Route: IP INJECTION) “inactive; negative”; (End Point: IN VIVO MICRONUCLEUS, Test System: POLYCHROMATIC ERYTHROCYTES, Species: MOUSE, Strain/Sex: CBA/MALE, Route: IP INJECTION) “inactive; negative”.
Regarding `NC(N)=NCCCC(N)C(=O)O` (stereo unspecified), the mutagenic call was “active; positive” (Test System: AMES SALMONELLA TYPHIMURIUM, Strain/Indicator: TA98, Metabolic Activation: RAT LIVER S-9, CHLOROPHENE, Method: STANDARD PLATE (COMPOUND HEATED AT 250 DEGREES CELSIUS FOR 20 MIN)); “inactive; negative” (Test System: Ames Salmonella typhimurium, Strain/Indicator: TA98, Metabolic Activation: Rat, Liver, S9, Aroclor 1254, assay without cofactors, Method: Preincubation); “inactive; negative” (Test System: Ames Salmonella typhimurium, Strain/Indicator: TA98, Metabolic Activation: Rat, Liver, S9, Aroclor 1254, heat inactivated, Method: Preincubation); “active; positive. statistically significant at 2 highest doses” (Test System: Ames Salmonella typhimurium, Strain/Indicator: TA98, Metabolic Activation: Rat, Liver, S9, Aroclor 1254, Method: Preincubation).
For the compound `CC1(C)C(C(=O)OC(C#N)c2cccc(Oc3ccccc3)c2)C1(C)C` (stereo unspecified), the mutagenic call runs as follows: (End Point: In vitro chromasomal aberrations, Test System: Chinese hamster ovary (CHO-K1) cells, Metabolic Activation: None) “inactive; negative”; (End Point: In vitro chromasomal aberrations, Test System: Chinese hamster ovary (CHO-K1) cells, Metabolic Activation: Rat, liver, S-9, PCB) “inactive; negative”; under setting [1], “inactive; negative”; (Test System: AMES SALMONELLA TYPHIMURIUM, Strain/Indicator: TA98, Metabolic Activation: S-9, Method: STANDARD PLATE) “inactive; negative”; under setting [2], “inactive; negative”; (Test System: AMES SALMONELLA TYPHIMURIUM, Strain/Indicator: TA100, Metabolic Activation: S-9, Method: STANDARD PLATE) “inactive; negative”. For the same compound, the mutagenic call (Test System: AMES SALMONELLA TYPHIMURIUM, Strain/Indicator: TA1535, Metabolic Activation: NONE, Method: STANDARD PLATE) was “inactive; negative”; the mutagenic call (Test System: AMES SALMONELLA TYPHIMURIUM, Strain/Indicator: TA1535, Metabolic Activation: S-9, Method: STANDARD PLATE) was “inactive; negative”; the mutagenic call (Test System: AMES SALMONELLA TYPHIMURIUM, Strain/Indicator: TA1537, Metabolic Activation: NONE, Method: STANDARD PLATE) is “inactive; negative”; the mutagenic call (Test System: AMES SALMONELLA TYPHIMURIUM, Strain/Indicator: TA1537, Metabolic Activation: S-9, Method: STANDARD PLATE) is “inactive; negative”; the mutagenic call (Test System: Ames Salmonella typhimurium, Strain/Indicator: TA98, Metabolic Activation: Rat, Liver, S-9, Kanechlor-400, Method: Preincubation) is “inactive; negative”; the mutagenic call (Test System: Ames Salmonella typhimurium, Strain/Indicator: TA100, Metabolic Activation: Rat, Liver, S-9, Kanechlor-400, Method: Preincubation) is “inactive; negative”. For the same compound, the mutagenic call is, setting by setting: (Test System: Ames Salmonella typhimurium, Strain/Indicator: TA1535, Metabolic Activation: Rat, Liver, S-9, Kanechlor-400, Method: Preincubation) “inactive; negative”; (Test System: Ames Salmonella typhimurium, Strain/Indicator: TA1537, Metabolic Activation: Rat, Liver, S-9, Kanechlor-400, Method: Preincubation) “inactive; negative”; (Test System: Ames Salmonella typhimurium, Strain/Indicator: TA1538, Metabolic Activation: Rat, Liver, S-9, Kanechlor-400, Method: Preincubation) “inactive; negative”; (Test System: E. coli, Strain/Indicator: WP2uvrA, Metabolic Activation: Rat, Liver, S-9, Kanechlor-400, Method: Preincubation) “inactive; negative”.
On to `N=C(N)c1ccc2cc(C(=N)N)[nH]c2c1`, for which the mutagenic call was “inactive; negative” under setting [1]; “inactive; negative” (Test System: AMES SALMONELLA TYPHIMURIUM, Strain/Indicator: TA98, Metabolic Activation: RAT, LIVER, S-9, PHENOBARBITAL, Method: STANDARD PLATE); “inactive; negative” under setting [2]; “inactive; negative” (Test System: AMES SALMONELLA TYPHIMURIUM, Strain/Indicator: TA100, Metabolic Activation: RAT, LIVER, S-9, PHENOBARBITAL, Method: STANDARD PLATE).
With `CC(=O)N[C@@H](CS/C(Cl)=C/Cl)C(=O)O`, the mutagenic call by setting is: (Test System: AMES SALMONELLA TYPHIMURIUM, Strain/Indicator: TA2638, Metabolic Activation: NONE, Method: PREINCUBATION) “active; positive”; (Test System: AMES SALMONELLA TYPHIMURIUM, Strain/Indicator: TA2638, Metabolic Activation: RAT, KIDNEY, CYTOSOL, Method: PREINCUBATION) “active; positive”.
For `c1cc[c]([Sb]([c]2ccccc2)[c]2ccccc2)cc1`, the mutagenic call is “active; positive” (Test System: AMES SALMONELLA TYPHIMURIUM, Strain/Indicator: TA1535, Metabolic Activation: RAT, LIVER, S-9, AROCLOR 1254, Method: STANDARD PLATE); “inactive; negative” under setting [3]; “active; equivocal (previous evaluation positive)” under setting [4].
`Oc1ccccc1F`: the mutagenic call (Test System: MOUSE LYMPHOMA, Strain/Indicator: L5178Y (TK+/TK-), Metabolic Activation: RAT, LIVER, S-9, AROCLOR 1254, Method: SUSPENSION/PLATE) was “active; positive. reevaluation of results: positive”; the mutagenic call under setting [3] is “inactive; negative”; the mutagenic call under setting [4] is “inactive; inconclusive (previous evaluation negative)”.

The values are drawn from PubChem BioAssay AID1259407 (Chemical Carcinogenesis Research Information System (CCRIS), 2018).
